Experimental data as given in patent US20080139407A1, “Segment synthesis” (PEPSCAN SYSTEMS B. V., priority 2000, published 2008).
*: point of attachment. BrAc = O=C(CBr)*

Columns and labels:
monoclonal antibody-01 = experiment: Spotted peptide constructs tested against monoclonal antibody-01, indirect fluorescence detection; type: binding; conditions: peptides spotted in 1 μl to 0.25 nl
Description: FIG. 2. A) Microturisation of spots of peptide constructs. Constructs were tested against the same monoclonal antibody-01 as was tested in FIG. 1. Binding was made visible using indirect fluorescence detection. Peptide 1, sequence with an N-terminal bromoacetamide, was synthesised on the complete surface. Peptide construct 6-1 is the same as construct 125 in FIG. 1. Peptides 2 up to 8, containing a cysteine residue, were spotted in different volumes ranging from 1 μl to 0.25 nl using piezo drop-on-demand technology. […] The identified epitope is shown in black. The disclosed peptide is shown in SEQ ID NO: 7.
The bromoacetamide peptide was covalently bound to a functionalised polypropylene/polyacrylic acid solid support in 3 μl wells as described above. The cysteine-containing sequences were synthesised on and cleaved from functionalised polyethylene pins as described above. […] On a surface of a solid support peptides are synthesized with a bromoacetamide group at the N-terminus as described above. […]

monoclonal antibody-03 = experiment: Control test of peptide-covered surface with monoclonal antibody-03, indirect fluorescence detection; type: binding; conditions: peptide present on the whole square
[1] = system: biotinylated DNA (3′-TATTCTCCGGACGAGTACCGTGAAGGGTC-Biotin-5′); experiment: Binding of biotinylated DNA by the construct of two PNAs, detected with streptavidin-horse radish peroxidase and ABTS; conditions: miniwell setup, polypropylene surface
Excerpt: FIG. 10. A) Schematic presentation of a DNA/RNA scan. The constructs are scanned with a labeled protein, for example a regulatory protein, or another DNA or PNA strand (top), or alternatively overlapping peptides are scanned with biotynilated RNA, DNA or PNA (bottom). The oligonucleotide sequences are shown in SEQ ID NOS 661-666, respectively, in order of appearance. B) Working example with biotinylated DNA on construct of two PNA's.
Chemistry in short: Detection of the binding of Biotinylated DNA by the construct of two PNAs. In miniwell setup the polypropylene (PP) surface of the miniwells was functionalized with carboxyl groups using gamma irradiation (12 kGy) in the presence of CuSO4 and 6% acrylic acid. Subsequently the PP surface was amino group functionalized (using BocHMDA/DCC/HOBt with subsequent removal of the Boc group with TFA). Next the amino groups were converted in thiol groups by coupling of Fmoc-Cys-(Trt) using DCC/HOBt, removal of the Fmoc group, acetylation of the amino group followed by removal of the Trt by TFA/triethyl silan. To this PP surface functionalized with thiol groups a PNA (PNA1) was coupled which contains N-terminal a bromoacetyl group and C-terminal an extra Cys-S-tBu (the Bromo group of the PNA reacts to the thiol group of the surface). After removal of the S-tBu (using NaBH4) of the Cys-S-tBu, the coupled PNA has a thiol group on C-terminal end. […]

| recognition / binding by monoclonal antibody-01 (monoclonal antibody-01) | Substance | recognition by monoclonal antibody-03 (monoclonal antibody-03) | binding of biotinylated DNA to the PNA construct [1] |
| --- | --- | --- | --- |
| does not recognize | ADSLYTYPVATQ (BrAc-ADSLYTYPVATQ-NH2) | recognizes |  |
|  | GAGGCCTGCTspacer ATGGCACTTC (PNA, spacer, thioether coupling to polypropylene surface, chemistry not fully specified) [PNA construct, construct of PNA1 and PNA2 coupled via thioether on polypropylene surface] |  | binding |
